The text below walks through data of patent US10851069B2, “Compositions of crystallized hydrophobic compounds and methods of making and using same” (Massachusetts Institute of Technology, priority 2016, dated 2020).

This assay relates to C57BL/6 mice. In words: Crystalline drug-loaded alginate capsules, long-term IP/SC implantation, prevention of fibrosis. Format: in vivo. The settings on record: crystalline form in alginate capsules, retrieved after 1, 3 and 6 months from IP space. An excerpt: Lead compounds identified by screening the amorphous formulations (e.g., compounds of Formulae I-X, particularly LY215799, Dx, Curcumin, GW2580, QNZ and Ki20227) were studied for long-term release and prevention of fibrosis following encapsulation in crystalline form and implantation into the intraperitoneal (IP) space of C57BL/6 mice for long term testing. […] Drug extraction analysis by HPLC also determined that notable percentages (e.g., more than 50%) of the loaded drug remained within the retrieved capsules (FIG. 22D), particularly in the subcutaneous implanted samples. […] In contrast, capsules retrieved from the IP space 6 months post-implantation were identified with only 2-40% of the loaded drug remaining within the retrieved capsules.
All animal protocols were approved by the MIT Committee on Animal Care, and all surgical procedures and post-operative care was supervised by MIT Division of Comparative Medicine veterinary staff. Immune-competent male non-diabetic or STZ-induced diabetic C57BL/6 mice (Jackson Laboratory, Bar Harbor, Me.) were anesthetized with 3% isoflurane in oxygen and had their abdomens shaved and sterilized using betadine and isopropanol. Preoperatively, all mice also received a 0.05 mg/kg dose of buprenorphine subcutaneously as a pre-surgical analgesic, along with 0.3 mL of 0.9% saline subcutaneously to prevent dehydration. A […] incision was made along the midline of the abdomen and the peritoneal lining was exposed using blunt dissection. The peritoneal wall was then grasped with forceps and a 0.5-1 mm incision was made along the linea alba. A desired volume of spheres (all materials without islets, as well as SLG20 spheres encapsulating rat islets) were then loaded into a sterile pipette and implanted into the peritoneal cavity through the incision. The incision was then closed using 5-0 taper-tipped polydioxanone (PDS II) absorbable sutures. The skin was then closed over the incision using a wound clip and tissue glue.
At desired time points post-implantation or transplantation (with encapsulated islets), as specified in figures, mice were euthanized by CO2 administration, followed by cervical dislocation. In certain instances, 5 ml of ice cold PBS was first injected in order perform an intraperitoneal lavage to rinse out and collect free-floating intraperitoneal immune cells. An incision was then made using the forceps and scissors along the abdomen skin and peritoneal wall, and intraperitoneal lavage volumes were pipetted out into fresh 15 ml falcon tubes (each prepared with 5 ml of RPMI cell culture media). Next, a wash bottle tip was inserted into the abdominal cavity. KREBS buffer was then used to wash out all material spheres from the abdomen and into petri dishes for collection. After ensuring all the spheres were washed out or manually retrieved (if fibrosed directly to intraperitoneal tissues), they were transferred into 50 mL conical tubes for downstream processing and imaging. After intraperitoneal lavage and sphere retrieval, remaining fibrosed intraperitoneal tissues were also excised for downstream FACS and expression analyses.
For phase contrast imaging, retrieved materials were gently washed using Krebs buffer and transferred into 35 mm petri dishes for phase contrast microscopy using an Evos X1 microscope (Advanced Microscopy Group).
Immunofluorescence imaging was used to determine immune populations attached to spheres. […]

Each structure is given as a SMILES string.

With `COc1ccc(COc2ccc(Cc3cnc(N)nc3N)cc2OC)cc1` [GW2580, 5-[[3-Methoxy-4-[(4-methoxyphenyl)methoxy]phenyl]methyl]-2,4-pyrimidinediamine], the “fibrosis by phase contrast imaging and confocal microscopy” value was “fibrosis free”.
